In patent US20230381139A1, “METHODS OF TREATING AND/OR PREVENTING ALZHEIMER’S DISEASE WITH R-CARVEDILOL” (priority 2020, published 2023):

Assays:
Format in all cases: in vivo, mouse
[1] = system: Aβ; experiment: Aβ accumulation (immunohistochemical staining and immunoblotting) in 5×FAD+/− mice; conditions: 5×FAD+/− mice 3-4, 4-5 and 6-7 months old after 1-month treatment with 3.2 mg/kg/day; vs DMSO
Protocol: Adult genetically engineered mice, 5×FAD^+/− (Oakley et al., 2006), RyR2-E4872Q^+/− (EQ^+/−) (Chen et al., 2014), 5×FAD^+/−/RyR2-E4872Q^+/− (5×FAD^+/−/EQ^+/−), and wildtype (WT) littermates of both sexes were used. R-carvedilol (R-CV) (at doses of 0.8, 1.6 or 3.2 mg/kg/day), racemic carvedilol (3.2 mg/kg/day), and vehicle control (DMSO) were delivered to 5×FAD^+/− mice in drinking water for one month, starting at different ages before (2-3 months old) or after (3-4 months old) the occurrence of AD pathologies (Oakley et al., 2006). To assess the effects of genetically and pharmacologically limiting RyR2 open time on the prevention and rescue of AD deficits in different stages (early, moderate, and late) of AD progression, animals at different ages (from 2-15 months) were used. As reported (Oakley et al., 2006), there was an age-dependence of AD progression in the 5×FAD^+/− mice. No sex-dependent differences in AD progression in these mice was observed. For 2-photon Ca^2+ imaging experiments, 5×FAD, RyR2 WT, and RyR2 mutant mice were cross-bred with the heterozygous Thy1-GCaMP6f transgenic mice (Chen et al., 2012; Chen et al., 2013) (GP5.17, JAX 025393) to express the GCaMP6f Ca^2+ sensing probe (driven by the Thy1 promotor) in hippocampal neurons in each of the genotypes used.
Immunoblotting analysis was carried out using the method described previously (Rosen et al., 2010). […]

[2] = system: hippocampal CA3-CA1 pathway of 3×TG+/− mice; experiment: Long-term potentiation recording in hippocampal slices from treated 3×TG+/− mice; conditions: brain slices from 12-15 months old 3×TG+/− mice, 3.2 mg/kg/day for one month; vs DMSO
Protocol: Schaffer collateral fibers were stimulated at the CA3 subfield to record field excitatory postsynaptic potentials (fEPSPs) in the CA1 stratum radiatum of transverse hippocampal slices ([…]) from all genotypes and drug-treated mice at different ages. After recovering at room temperature for 1 h (or 2 h for brain slices from drug-treated mice), hippocampal slices were allowed to recover in the recording chamber for additional 10 min. To evaluate basal synaptic transmission, different stimulation strengths (0 μA to 200 μA in steps of 20 μA) were applied and plotted fEPSP slopes versus the current input to compare the slope of input/output (I/O) curves of fEPSP. In the experiments that followed, stimulus current was adjusted so that fEPSP stabilized at 40-50% of maximum. Baseline was recorded for at least […] until the differences among fEPSP slopes were within 10%. Long-term potentiation (LTP) was induced using a tetanic high-frequency stimulation (HFS; 4 trains of 100 pulses at 100 Hz, with 20-sec intervals). Synaptic responses were recorded for at least 60 min after tetanization and quantified as the slope of the evoked fEPSP as percentage of the baseline.

[3] = system: Aβ plaques; experiment: Aβ plaques (immunohistochemical staining) in 3×TG+/− mice; conditions: 12-15 months old 3×TG+/− mice, 3.2 mg/kg/day for one month; vs DMSO
Protocol: Genetically engineered mice of 12-15 months old, 3×TG+/− (Oddo et al., 2003), RyR2-E4872Q+/− (EQ+/−)(Chen et al., 2014), 3×TG+/−/RyR2-E48720+/− (3×TG+/−/EQ+/−), and WT littermates of both sexes were used. Sex differences, which may produce biological variables, were not investigated in this study. R-carvedilol (R-CV) (3.2 mg/kg/day) and vehicle control (DMSO) were delivered to 3×TG+/− mice in drinking water for one month. As shown previously, only heterozygous RyR2-E4872Q+/− mutant mice were produced as homozygous E4872Q+/+mutation is embryonic lethal (Chen et al., 2014). Functional RyR2s are tetrameric channels formed by 4 RyR2 monomers. The heterozygous E4872Q+/− mutant mice (harboring one WT allele and one E4872Q mutant allele) will produce a mixture of homo- and hetero-tetrameric channels that contain the WT, E48720 mutant, or both WT/E4872Q mutant monomers. Thus, the RyR2-E4872Q mutation can exert its negative impact not only on the function of the E4872Q homo-tetramers, but also on the function of the WT monomer in the WT/E4872Q hetero-tetrameric channels.
Mice of different ages and genotypes were anesthetized and transcardially perfused with 10% neutral buffered formalin (NBF). Whole brains were removed and post-fixed in NBF for at least 24 h. The fixed brains were then embedded in paraffin after dehydration and diaphanization. […]

COc1ccccc1OCCNC[C@@H](O)COc1cccc2[nH]c3ccccc3c12 [R-carvedilol, R-(+)-carvedilol]
Aβ accumulation (plaques, total Aβ and Aβ (1-42) levels) [1]: without affecting
hippocampal LTP (potentiation of fEPSP slope) [2]: significantly enhanced
area of Aβ plaques in the hippocampal region [3]: no significant difference
number of Aβ plaques in the hippocampal region [3]: no significant difference
